Results on six compounds are retold here after the supplement of paper PMC11061612.

Holding throughout (assay): combination Emax (second highest fraction inhibited in the dose matrix, 72 h); higher = more inhibition; extreme values may be limits of the assay
In assay [1] the test system is HCT-116 (Colorectal Carcinoma). In a few lines: (§1)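 Cell lines in DMEM/F12 or RPMI with 10% FBS were plated in 1536-well plates, held 24 hours at 37°C, 5% CO2, then given two-drug dose matrices for 72 hours (DMSO typically 0.2%). Viability was read by CellTiter-Glo 2.0 luminescence and scaled as inhibition from 0 (vehicle wells) to 1 (blank wells). Combination Emax is the second-highest inhibition in the matrix; Bliss excess is observed combination effect minus expected EA + EB − EA·EB, EA and EB being single-agent effects.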

For assay [2], the system named is MCF7 (Breast Carcinoma). In a few lines: as §1
For assay [3], the system named is HLE (Hepatocellular Carcinoma). The procedure, abridged:
as §1

For assay [4], the system named is D-392MG (Glioblastoma). In a few lines:
as §1

Assay [5] deals with PA-TU-8902 (Pancreatic Carcinoma). The procedure, abridged:
as §1

The test system of assay [6] is NCI-H1688 (Small Cell Lung Carcinoma). In a few lines: as §1
For assay [7], the system named is D-283MED (Other Solid Carcinomas). In a few lines:
as §1

Assay [8] concerns H4 (Low Grade Glioma). The procedure, abridged: as §1
For assay [9], the system named is SW948 (Colorectal Carcinoma). In a few lines: as §1
Assay [10] concerns YT (Other Blood Carcinomas). The procedure, abridged:
as §1

Assay [11] relates to KG-1 (Acute Myeloid Leukemia). In a few lines: as §1
The test system of assay [12] is U-118-MG (Low Grade Glioma). The procedure, abridged: as §1
In assay [13] the test system is HCC1143 (Breast Carcinoma). The procedure, abridged: as §1
Assay [14] has as its system HOP-92 (Non-Small Cell Lung Carcinoma). The procedure, abridged: as §1
In assay [15] the test system is SNG-M (Endometrial Carcinoma). In a few lines:
as §1

The test system of assay [16] is SNU-61 (Colorectal Carcinoma). In a few lines:
as §1

The test system of assay [17] is TYK-nu (Ovarian Carcinoma). In a few lines: as §1
Assay [18] relates to ETK-1 (Biliary Tract Carcinoma). The procedure, abridged:
as §1

The subject of assay [19] is Saos-2 (Osteosarcoma). In a few lines: as §1
In assay [20] the test system is CAL-39 (Other Solid Carcinomas). In a few lines:
as §1

With `C[C@@H](c1ccc2nccn2c1)n1nnc2ncc(-c3cnn(C)c3)nc21` [Savolitinib] + CC1(C)CCC(CN2CCN(c3ccc(C(=O)NS(=O)(=O)c4ccc(NCC5CCOCC5)c([N+](=O)[O-])c4)c(Oc4cnc5[nH]ccc5c4)c3)CC2)=C(c2ccc(Cl)cc2)C1 [Venetoclax] (first compound max 1 µM, 7x7, partner max 1 µM), the “combination Emax” value in assay [1] is 0.114; in [2], 0.129; in assay [3], 0.155; in assay [4], 0.266; in assay [5], 0.168; in [6], 0.239. The “combination Emax” value in assay [7] worked out at 0.126; in assay [8], 0.218; in [9] it was 0.166; in assay [10] it was 0.336; in assay [11], 0.38; in assay [12], 0.218. Further, the “combination Emax” value in [13] came to 0.29; in [14], 0.201; in assay [15], 0.246; in assay [16] it was 0.143; in assay [17], 0.168; in assay [18] it was 0.0864. The “combination Emax” value in assay [19] was 0.121; in assay [20], 0.157.
With `C[C@@H](c1ccc2nccn2c1)n1nnc2ncc(-c3cnn(C)c3)nc21` [Savolitinib] + Cc1c2c(nn1C)CSCc1cc(n(C)n1)CSc1cc(c3ccccc3c1)OCCCc1c(C(=O)O)n(C)c3c-2c(Cl)ccc13 [AZD5991] (first compound max 1 µM, 7x7, partner max 1 µM), the “combination Emax” value in [1] came to 0.162; in [2] it was 0.49; in assay [3] it was 0.164; in [4], 0.31; in [5] it was 0.184; in assay [6] it was 0.314. Further, the “combination Emax” value was found to be 0.725 in assay [7]; 0.298 in assay [8]; 0.215 in assay [9]; 1 in assay [10]; 0.711 in assay [11]; 0.258 in [12]. The “combination Emax” value amounted to 0.402 in assay [13]; 0.197 in assay [14]; 0.32 in assay [15]; 0.151 in assay [16]; 0.295 in assay [17]; 0.141 in assay [18]. For the same compound, the figures for the “combination Emax” value in assay [19] and in assay [20] were 0.229 and 0.264, respectively.
Take `Cn1cnc2c(F)c(Nc3ccc(Br)cc3Cl)c(C(=O)NOCCO)cc21` [Selumetinib] + C=CCn1c(=O)c2cnc(Nc3ccc(N4CCN(C)CC4)cc3)nc2n1-c1cccc(C(C)(C)O)n1 [AZD1775] (first compound max 10 µM, partner max 1 µM): the “combination Emax” value worked out at 0.785 in [1]; 0.247 in assay [2]; 0.345 in [3]; 0.263 in [4]; 0.571 in assay [5]; 0.525 in [6]. In addition, the “combination Emax” value stood at 0.956 in assay [7]; 0.739 in assay [8]; 0.79 in [9]; 0.945 in assay [10]; 0.587 in assay [11]; 0.327 in [12]. In addition, the “combination Emax” value in assay [13] was 0.528; in assay [14], 0.503; in assay [15], 0.555; in [16], 0.527; in assay [17], 0.715; in assay [18], 0.384. Also, the “combination Emax” value in assay [19] came out at 0.551; in assay [20], 0.726.
With `Cn1cnc2c(F)c(Nc3ccc(Br)cc3Cl)c(C(=O)NOCCO)cc21` [Selumetinib] + CC(C)n1c(=O)n(C)c2cnc3cc(F)c(-c4ccc(OCCCN5CCCCC5)nc4)cc3c21 [AZD1390] (first compound max 10 µM, 7x7, partner max 0.3 µM), the “combination Emax” value stood at 0.664 in assay [1]; 0.084 in assay [2]; 0.122 in [3]; 0.145 in assay [4]; 0.307 in assay [5]; 0.223 in [6]. Moreover, the “combination Emax” value was 0.148 in assay [7]; 0.13 in assay [8]; 0.698 in assay [9]; 0.16 in assay [10]; 0.307 in assay [11]; 0.178 in assay [12]. Besides, the “combination Emax” value was 0.297 in assay [13]; 0.402 in [14]; 0.187 in assay [15]; 0.389 in [16]; 0.548 in assay [17]; 0.122 in assay [18]. Also, the figures for the “combination Emax” value in [19] and in [20] were 0.153 and 0.643, respectively.
`Cn1cnc2c(F)c(Nc3ccc(Br)cc3Cl)c(C(=O)NOCCO)cc21` [Selumetinib] + CCN(CCO)CCCOc1ccc2c(Nc3cc(CC(=O)Nc4cccc(F)c4)[nH]n3)ncnc2c1 [AZD2811] (first compound max 10 µM, 7x7, partner max 1 µM): the “combination Emax” value in assay [1] turned out to be 0.792; in [2] it was 0.191; in [3], 0.235; in [4], 0.197; in assay [5], 0.445; in assay [6], 0.169. In addition, the “combination Emax” value turned out to be 0.476 in assay [7]; 0.306 in assay [8]; 0.785 in [9]; 0.229 in [10]; 0.392 in assay [11]; 0.287 in assay [12]. Moreover, the “combination Emax” value in assay [13] turned out to be 0.409; in assay [14] it was 0.495; in [15] it was 0.261; in [16] it was 0.486; in assay [17], 0.554; in assay [18] it was 0.158. Also, the “combination Emax” value is 0.472 in assay [19] and 0.72 in assay [20].
With `Cn1cnc2c(F)c(Nc3ccc(Br)cc3Cl)c(C(=O)NOCCO)cc21` [Selumetinib] + C[C@@H]1COCCN1C2=NC(=NC(=C2)C3(CC3)[S@](=N)(=O)C)C4=C5C=CNC5=NC=C4 [AZD6738] (first compound max 10 µM, 7x7, partner max 10 µM), the “combination Emax” value is 0.8 in [1]; 0.468 in assay [2]; 0.404 in assay [3]; 0.302 in assay [4]; 0.357 in [5]; 0.165 in assay [6]. The “combination Emax” value stood at 0.988 in assay [7]; 0.672 in [8]; 0.732 in assay [9]; 0.801 in [10]; 0.787 in assay [11]; 0.479 in [12]. Further, the “combination Emax” value in assay [13] amounted to 0.766; in assay [14] it was 0.398; in assay [15], 0.866; in [16] it was 0.527; in assay [17], 0.732; in [18], 0.587. The “combination Emax” value in assay [19] stood at 0.456; in assay [20], 0.697.
